Patent publication US10072005B2, “4-azaindole derivatives” (EISAI R&D MANAGEMENT CO., LTD., priority 2013, dated 2018)

Assays:
[1] = test system: male Crlj: WI rats; experiment: Morris Water Maze Test in Ibotenic Acid-Induced Learning Disability Model; assay type: in vivo, rat; details: for Swimming time in 4th quadrant / Frequency of entry into platform area: probe trial
Procedure: Ibotenic acid at 5 μg/0.5 μL was injected into both basal nuclei of 8-week old male Crlj: WI rats, and a Morris water maze test was performed 10-14 days after ibotenic acid injection. It has been reported that rats in which basal forebrain was lesioned by ibotenic acid injection show learning disability in the Morris water maze test. (Pharmacopsychiat, 1999, 32, 242-247). The test is considered a model of spatial learning and memory.
Learning trials were performed twice a day at an interval of 3 hours for 4 days (8 times in total), and probe trials were performed once the day after completion of the learning trials. Each test compound was dissolved in a 0.5% methylcellulose in water and orally administered 1 hour before the first trial on each day of the learning trials and 1 hour before the trial on the day of the probe trials.
A colorless clear acrylic platform (diameter: about 12 cm, height: about 30 cm) and a gray vinyl chloride circular pool (diameter: about 148 cm, height: about 44 cm), which was filled with water (temperature: 17-18° C.) up to a height of about 32 cm so that the platform was fully immersed in water, were used as the test device. Four quadrants were prepared at the bottom of the pool, and the platform was set at the center of 1 of the 4 quadrants (about 37 cm from the center of the pool). A light bulb was placed near the quadrant with the platform as a spatial cue.
In learning trials, the animal was put into water and goal latency and swimming distance to reach the platform were measured (measurement time: 90 seconds at the longest) by a video image behavioral analysis device (Etho Vision XT, Noldus Information Technology Inc.). When an animal reached the platform within 90 seconds and stayed on the platform for 30 seconds, it was judged that the animal recognized the position of the platform, and the measurement was finished.
In probe trials, the platform was removed from the pool. The animal was put into water, and the swimming time in the quadrant where the platform had been located in the learning trials and the frequency of entry into the platform area where the platform had been located in the learning trials were measured by Etho Vision XT.
Each value was shown as an average and a standard error (n=10). The statistical significance between a control group and a vehicle group was analyzed by the independent t-test. The statistical significance between the vehicle group and each sample group was analyzed by one-way analysis of variance and then by Dunnett's multiple comparison test. The significance level was set to 5% on both sides. […] The analysis was carried out by using SAS system (SAS Institute Japan Ltd.).

[2] = biological target: mAChR M2 (Homo sapiens (Human), UniProt P08172); experiment: In vitro cellular calcium flux assay, PAM, NAM and agonist modes, mAChR M2; assay type: cell-based
Procedure: Baby hamster kidney cells stably expressing human or rat mAChR M1 to M5 were utilised for primary and selectivity profiling activities. mAChR M2 and M4 cell lines also stably expressed the chimeric Gαqi5 G-protein.
Human mAChR M1, M3, M5 and rat M1 cells were grown in low glucose Dulbecco's Modified Eagle's Medium (DMEM) medium plus heat inactivated 10% fetal bovine serum (HI FBS) and 500 μg/ml hygromycin B^1. Human mAChR M2 and M4 cells were maintained as above with^2 the addition of 500 μg/ml G418 to the media. Cells were maintained in culture at 37° C./5% CO2 and passaged twice weekly by treatment with 0.05% Trypsin/EDTA detachment solution, centrifugation (200 g, 5 min) and re-suspension in fresh media. Following cell expansion, cells were cryopreserved at −80° C. by treatment with 0.05% Trypsin/EDTA detachment solution, centrifugation (200 g, 5 min) and re-suspension of the pellet in freezing media (90% HI FBS/10% DMSO^3) at 15E6 cells/ml^4.
Prior to assaying, cells were prepared by thawing at 37° C. in a water bath, centrifugation (200 g, 5 min) and re-suspension of the pellet in fresh media. 15000 cells per well were seeded in black, clear bottomed 384-well Greiner Bio-One plates in plating medium (DMEM/10% HI FBS) and incubated overnight at 37 C/5% CO2.
On the day of the assay, media was removed from each well and replaced with 50 μl^5 assay buffer (HBSS with 20 mM HEPES and 2.5 mM Probenecid) containing the calcium indicator, Calcium 4 (Molecular Devices). Cells were then incubated at 37° C./5% CO2 for 30 min and at room temperature.
Compound preparation was carried out by generation of 11-point, 1 in 3 serial dilution concentration response curves in 100% DMSO. Compound was then diluted 1 in 65^6 with assay buffer (HBSS with 20 mM HEPES and 2.5 mM Probenecid) prior to the addition of 10 ul^7 to the cells using a Tetra fluorometric imaging plate reader (Molecular Devices)^8. Compound driven increases in intracellular calcium flux was measured as an increase in fluorescence (494Ex, 516Em)^9.
Positive allosteric modulator pEC50 values and antagonist pIC50 values for each compound were then determined. […] The points of modification and the alternate reagents, concentrations or equipment employed in these examples were: ^1200 μg/ml hygromycin B; ^2G418 not added; ^3CELLBANKER 1; ^410E6; ^5 40 μl; ^6 1 in 99; ^7 20 μl; ^8FDSS6000 (Hamamatsu Photonics); ^9(480Ex, 540Em); ^10Spotfire (TIBCO).
Certain compounds were tested in PAM, NAM and agonist modes against mAChR M2, M3, M4 and M5.

mAChR M2, sequence (P08172 whole entry): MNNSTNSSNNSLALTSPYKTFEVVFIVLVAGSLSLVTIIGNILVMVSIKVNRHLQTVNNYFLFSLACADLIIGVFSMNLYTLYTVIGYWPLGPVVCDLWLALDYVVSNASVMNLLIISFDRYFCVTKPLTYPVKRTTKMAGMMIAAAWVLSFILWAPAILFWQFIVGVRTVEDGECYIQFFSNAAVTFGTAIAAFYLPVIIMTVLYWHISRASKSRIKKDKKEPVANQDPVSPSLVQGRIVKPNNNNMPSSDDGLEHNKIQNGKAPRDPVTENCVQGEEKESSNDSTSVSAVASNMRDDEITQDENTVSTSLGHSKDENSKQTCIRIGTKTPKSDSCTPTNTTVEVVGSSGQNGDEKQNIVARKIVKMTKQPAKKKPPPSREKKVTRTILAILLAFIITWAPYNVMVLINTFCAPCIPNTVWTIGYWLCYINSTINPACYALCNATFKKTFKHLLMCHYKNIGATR

Q: Which results are given for `O=C(N[C@H]1CCCC[C@@H]1O)c1cn(Cc2ccc(F)cc2)c2cccnc12` [Example 5, 1-(4-Fluorobenzyl)-N-((1S,2S)-2-hydroxycyclohexyl)-1H-pyrrolo[3,2-b]pyridine-3-carboxamide]?
A: Goal latency ([1]; Trial 1, 0.1 mg/kg p.o.): [90 ± 0.00] sec.; Swimming distance ([1]; Trial 1, 0.1 mg/kg p.o.): [2152.96 ± 91.73] cm; Goal latency ([1]; Trial 1, 0.3 mg/kg p.o.): [90 ± 0.00] sec.; Swimming distance ([1]; Trial 1, 0.3 mg/kg p.o.): [2400.75 ± 122.49] cm; Goal latency ([1]; Trial 2, 0.1 mg/kg p.o.): [90 ± 0.00] sec.; Swimming distance ([1]; Trial 2, 0.1 mg/kg p.o.): [2353.99 ± 145.71] cm; Goal latency ([1]; Trial 2, 0.3 mg/kg p.o.): [89.47 ± 0.53] sec.; Swimming distance ([1]; Trial 2, 0.3 mg/kg p.o.): [2533.19 ± 86.87] cm; Goal latency ([1]; Trial 3, 0.1 mg/kg p.o.): [78.81 ± 8.1] sec.; Swimming distance ([1]; Trial 3, 0.1 mg/kg p.o.): [1884.79 ± 174.8] cm; Goal latency ([1]; Trial 3, 0.3 mg/kg p.o.): [75.08 ± 7.99] sec.; Swimming distance ([1]; Trial 3, 0.3 mg/kg p.o.): [1945.42 ± 189.94] cm; Goal latency ([1]; Trial 4, 0.1 mg/kg p.o.): [79.59 ± 7.36] sec.; Swimming distance ([1]; Trial 4, 0.1 mg/kg p.o.): [1822.32 ± 206.29] cm; Goal latency ([1]; Trial 4, 0.3 mg/kg p.o.): [60.53 ± 12.15]# sec.; Swimming distance ([1]; Trial 4, 0.3 mg/kg p.o.): [1592.82 ± 308.21] cm; Goal latency ([1]; Trial 5, 0.1 mg/kg p.o.): [83.06 ± 4.7] sec.; Swimming distance ([1]; Trial 5, 0.1 mg/kg p.o.): [1918.78 ± 132.12] cm; Goal latency ([1]; Trial 5, 0.3 mg/kg p.o.): [53.99 ± 10.18]## sec.; Swimming distance ([1]; Trial 5, 0.3 mg/kg p.o.): [1417.94 ± 229.44]## cm; Goal latency ([1]; Trial 6, 0.1 mg/kg p.o.): [66.13 ± 12.22] sec.; Swimming distance ([1]; Trial 6, 0.1 mg/kg p.o.): [1464.97 ± 308.91] cm; Goal latency ([1]; Trial 6, 0.3 mg/kg p.o.): [33.09 ± 9.78]## sec.; Swimming distance ([1]; Trial 6, 0.3 mg/kg p.o.): [876.2 ± 203.14]## cm; Goal latency ([1]; Trial 7, 0.1 mg/kg p.o.): [76.97 ± 8.11] sec.; Swimming distance ([1]; Trial 7, 0.1 mg/kg p.o.): [1839.16 ± 221.78] cm; Goal latency ([1]; Trial 7, 0.3 mg/kg p.o.): [50.1 ± 10.02]## sec.; Swimming distance ([1]; Trial 7, 0.3 mg/kg p.o.): [1329.27 ± 236.21]## cm; Goal latency ([1]; Trial 8, 0.1 mg/kg p.o.): [67.24 ± 10.13] sec.; Swimming distance ([1]; Trial 8, 0.1 mg/kg p.o.): [1492.52 ± 260.05] cm; Goal latency ([1]; Trial 8, 0.3 mg/kg p.o.): [38.02 ± 10.74]## sec.; Swimming distance ([1]; Trial 8, 0.3 mg/kg p.o.): [1020.57 ± 253.94]## cm; Swimming time in 4th quadrant ([1]; 0-30 sec., 0.1 mg/kg p.o.): [8.90 ± 1.02]# sec.; Swimming time in 4th quadrant ([1]; 0-30 sec., 0.3 mg/kg p.o.): [7.19 ± 1.11] sec.; Frequency of entry into platform area ([1]; 0.1 mg/kg p.o.): [0.9 ± 0.3]; Frequency of entry into platform area ([1]; 0.3 mg/kg p.o.): [1.7 ± 0.5]##; Swimming time in 4th quadrant ([1]; 30-60 sec., 0.1 mg/kg p.o.): [9.41 ± 1.80]# sec.; Swimming time in 4th quadrant ([1]; 30-60 sec., 0.3 mg/kg p.o.): [8.48 ± 1.25] sec.; Swimming time in 4th quadrant ([1]; 60-90 sec., 0.1 mg/kg p.o.): [7.74 ± 0.85] sec.; Swimming time in 4th quadrant ([1]; 60-90 sec., 0.3 mg/kg p.o.): [7.49 ± 1.37] sec.; Swimming time in 4th quadrant ([1]; Total, 0.1 mg/kg p.o.): [26.05 ± 2.03]## sec.; Swimming time in 4th quadrant ([1]; Total, 0.3 mg/kg p.o.): [23.16 ± 2.97] sec.; EC50 [2]: > 10 µM
